This note sets out measurements from patent publication US20230295197A1, “STAT5 and STAT6 Degraders and Uses Thereof” (REGENTS OF THE UNIVERSITY OF MICHICAN, priority 2022, published 2023).

In this assay the target is T1, STAT6 (Homo sapiens, UniProt P42226).
T1 construct: endogenous in cells; host or cells: MOLM-16, KU-812, SKNO1, MB231, L1236
T1 sequence (P42226 1-847): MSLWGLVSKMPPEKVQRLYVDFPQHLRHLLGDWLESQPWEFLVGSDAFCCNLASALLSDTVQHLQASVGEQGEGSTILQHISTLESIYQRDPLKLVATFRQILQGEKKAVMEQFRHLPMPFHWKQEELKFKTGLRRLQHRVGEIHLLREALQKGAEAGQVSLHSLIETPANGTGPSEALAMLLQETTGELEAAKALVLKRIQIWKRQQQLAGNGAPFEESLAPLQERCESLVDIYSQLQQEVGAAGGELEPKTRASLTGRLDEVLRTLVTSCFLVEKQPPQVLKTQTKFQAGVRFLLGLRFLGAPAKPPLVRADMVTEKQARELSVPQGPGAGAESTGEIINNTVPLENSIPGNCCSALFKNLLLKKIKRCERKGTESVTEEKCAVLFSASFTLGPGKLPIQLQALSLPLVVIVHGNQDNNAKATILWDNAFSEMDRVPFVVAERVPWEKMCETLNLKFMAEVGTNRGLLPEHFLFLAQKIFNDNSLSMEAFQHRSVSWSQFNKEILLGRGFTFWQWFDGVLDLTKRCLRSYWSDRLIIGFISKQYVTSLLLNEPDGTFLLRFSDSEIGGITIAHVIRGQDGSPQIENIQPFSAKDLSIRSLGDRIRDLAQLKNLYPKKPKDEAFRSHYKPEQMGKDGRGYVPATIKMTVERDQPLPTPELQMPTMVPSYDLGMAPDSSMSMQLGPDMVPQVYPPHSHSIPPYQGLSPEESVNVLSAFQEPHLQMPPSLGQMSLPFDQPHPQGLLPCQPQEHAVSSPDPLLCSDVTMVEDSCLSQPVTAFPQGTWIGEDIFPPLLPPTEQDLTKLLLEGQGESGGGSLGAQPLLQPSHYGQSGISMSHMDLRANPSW
Kind of assay: Immunoblotting (Western blot) analysis of STAT6 degradation efficiency of degraders in treated cells. The class given is cell-based. The essentials: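 Degradation read by quantitative near-infrared Western blot: equal protein loads (20-40 μg) from compound-treated versus untreated cells, probed overnight at 4° C. for STAT5 or STAT6 with GAPDH reference. Compound concentrations and exposure times as indicated; cells grown in medium with 10% FBS at 37° C.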
On the technique in general: A western blot detects proteins with antibodies after separation by electrophoresis.

The mark [1] stands for this setting: MOLM-16 cells, class symbols, read-out: DC50 S6 MOLM-16.
Setting [2] is: L1236 cells, read-out: DC50 S6 L1236.

Like-named read-outs stand apart in the source and are kept apart here.

As for `CC(C)(C)[C@H](NC(=O)c1cc2cc(C(F)(F)P(=O)(O)O)ccc2s1)C(=O)N1C[C@@H](OCC(=O)NCCC#Cc2ccc3c(c2)C(=O)N(C2CCC(=O)NC2=O)C3=O)C[C@H]1C(=O)N1CCC[C@H](c2ccccc2)C1` (stereo partly drawn) [Compound 496, ((2-(((2S)-1-((2S,4S)-4-(2-((4-(2-(2,6-dioxopiperidin-3-yl)-1,3-dioxoisoindolin-5-yl)but-3-yn-1-yl)amino)-2-oxoethoxy)-2-((R)-3-phenylpiperidine-1-carbonyl)pyrrolidin-1-yl)-3,3-dimethyl-1-oxobutan-2-yl)carbamoyl)benzo[b]thiophen-5-yl)difluoromethyl)phosphonic acid], under setting [1], the 50% degradation concentration (DC50) was above 10 µM.

On to `CC(C)(C)[C@H](NC(=O)c1cc2cc(C(F)(F)P(=O)(O)O)ccc2s1)C(=O)N1Cc2cc(OCC(=O)NCCCC#Cc3ccc4c(c3)C(=O)N(C3CCC(=O)NC3=O)C4=O)ccc2C[C@H]1C(=O)N1CCC[C@H](c2ccccc2)C1` (stereo partly drawn) [Compound 554, ((2-(((2S)-1-((3S)-7-(2-((5-(2-(2,6-dioxopiperidin-3-yl)-1,3-dioxoisoindolin-5-yl)pent-4-yn-1-yl)amino)-2-oxoethoxy)-3-((R)-3-phenylpiperidine-1-carbonyl)-3,4-dihydroisoquinolin-2(1H)-yl)-3,3-dimethyl-1-oxobutan-2-yl)carbamoyl)benzo[b]thiophen-5-yl)difluoromethyl)phosphonic acid], for which the half-maximal degradation concentration (DC50) under setting [1] was above 10 µM.

Take `CC(C)(C)[C@H](NC(=O)c1cc2cc(C(F)(F)P(=O)(O)O)ccc2s1)C(=O)N1C[C@@H](OCC(=O)NCCCCC#Cc2cccc3c2C(=O)N(C2CCC(=O)NC2=O)C3=O)C[C@H]1C(=O)N1CCO[C@H](c2ccccc2)C1` (stereo partly drawn) [Compound 485, ((2-(((2S)-1-((2S,4S)-4-(2-((6-(2-(2,6-dioxopiperidin-3-yl)-1,3-dioxoisoindolin-4-yl)hex-5-yn-1-yl)amino)-2-oxoethoxy)-2-((R)-2-phenylmorpholine-4-carbonyl)pyrrolidin-1-yl)-3,3-dimethyl-1-oxobutan-2-yl)carbamoyl)benzo[b]thiophen-5-yl)difluoromethyl)phosphonic acid]: under setting [1], the DC50 is above 10 µM.

Take `Cc1ncsc1-c1ccc([C@H](C)NC(=O)[C@@H]2C[C@@H](O)CN2C(=O)[C@@H](NC(=O)CCCCCCCNC(=O)CC(=O)N2CCN(C(=O)[C@@H](NC(=O)c3cc4cc(C(F)(F)P(=O)(O)O)ccc4s3)C(C)(C)C)[C@H](C(=O)N3CCC[C@H](c4ccccc4)C3)C2)C(C)(C)C)cc1` [Compound 458, (difluoro(2-(((S)-1-((S)-4-(3-((8-(((S)-1-((2S,4R)-4-hydroxy-2-(((S)-1-(4-(4-methylthiazol-5-yl)phenyl)ethyl)carbamoyl)pyrrolidin-1-yl)-3,3-dimethyl-1-oxobutan-2-yl)amino)-8-oxooctyl)amino)-3-oxopropanoyl)-2-((R)-3-phenylpiperidine-1-carbonyl)piperazin-1-yl)-3,3-dimethyl-1-oxobutan-2-yl)carbamoyl)benzo[b]thiophen-5-yl)methyl)phosphonic acid]: the 50% degradation concentration (DC50) under setting [2] was above 10 µM and the DC50 under setting [1] was above 10 µM.

`Cc1ncsc1-c1ccc([C@H](C)NC(=O)[C@@H]2C[C@@H](O)CN2C(=O)[C@@H](NC(=O)CCCCNC(=O)CC(=O)N2CCN(C(=O)[C@@H](NC(=O)c3cc4cc(C(F)(F)P(=O)(O)O)ccc4s3)C(C)(C)C)[C@H](C(=O)N3CCC[C@H](c4ccccc4)C3)C2)C(C)(C)C)cc1` [Compound 455, (difluoro(2-(((S)-1-((S)-4-(3-((5-(((S)-1-((2S,4R)-4-hydroxy-2-(((S)-1-(4-(4-methylthiazol-5-yl)phenyl)ethyl)carbamoyl)pyrrolidin-1-yl)-3,3-dimethyl-1-oxobutan-2-yl)amino)-5-oxopentyl)amino)-3-oxopropanoyl)-2-((R)-3-phenylpiperidine-1-carbonyl)piperazin-1-yl)-3,3-dimethyl-1-oxobutan-2-yl)carbamoyl)benzo[b]thiophen-5-yl)methyl)phosphonic acid]: the 50% degradation concentration (DC50) was above 10 µM under setting [2] and above 10 µM under setting [1].

Consider `CC(C)(C)[C@H](NC(=O)c1cc2cc(C(F)(F)P(=O)(O)O)ccc2s1)C(=O)N1Cc2cc(OCC(=O)NCCCCCCCCC#Cc3cccc4c3C(=O)N(C3CCC(=O)NC3=O)C4=O)ccc2C[C@H]1C(=O)N1CCO[C@H](c2ccccc2)C1` (stereo partly drawn) [Compound 545, ((2-(((2S)-1-((3S)-7-(2-((10-(2-(2,6-dioxopiperidin-3-yl)-1,3-dioxoisoindolin-4-yl)dec-9-yn-1-yl)amino)-2-oxoethoxy)-3-((R)-2-phenylmorpholine-4-carbonyl)-3,4-dihydroisoquinolin-2(1H)-yl)-3,3-dimethyl-1-oxobutan-2-yl)carbamoyl)benzo[b]thiophen-5-yl)difluoromethyl)phosphonic acid], for which the 50% degradation concentration (DC50) under setting [1] is above 10 µM.

Consider `CC(C)(C)[C@H](NC(=O)c1cc2cc(C(F)(F)P(=O)(O)O)ccc2s1)C(=O)N1C[C@@H](OCC(=O)NCC#Cc2cccc3c2C(=O)N(C2CCC(=O)NC2=O)C3=O)C[C@H]1C(=O)N1CCO[C@H](c2ccccc2)C1` (stereo partly drawn) [Compound 479, ((2-(((2S)-1-((2S,4S)-4-(2-((3-(2-(2,6-dioxopiperidin-3-yl)-1,3-dioxoisoindolin-4-yl)prop-2-yn-1-yl)amino)-2-oxoethoxy)-2-((R)-2-phenylmorpholine-4-carbonyl)pyrrolidin-1-yl)-3,3-dimethyl-1-oxobutan-2-yl)carbamoyl)benzo[b]thiophen-5-yl)difluoromethyl)phosphonic acid], for which the DC50 under setting [1] is above 10 µM.

With `CC(C)(C)[C@H](NC(=O)c1cc2cc(C(F)(F)P(=O)(O)O)ccc2s1)C(=O)N1Cc2cc(OCC(=O)NCCCCC#Cc3ccc4c(c3)C(=O)N(C3CCC(=O)NC3=O)C4=O)ccc2C[C@H]1C(=O)N1CCO[C@H](c2ccccc2)C1` (stereo partly drawn) [Compound 542, ((2-(((2S)-1-((3S)-7-(2-((6-(2-(2,6-dioxopiperidin-3-yl)-1,3-dioxoisoindolin-5-yl)hex-5-yn-1-yl)amino)-2-oxoethoxy)-3-((R)-2-phenylmorpholine-4-carbonyl)-3,4-dihydroisoquinolin-2(1H)-yl)-3,3-dimethyl-1-oxobutan-2-yl)carbamoyl)benzo[b]thiophen-5-yl)difluoromethyl)phosphonic acid], the DC50 under setting [1] was above 10 µM.

One may read the DC50 as the concentration at which degradation of the target reaches its halfway point.
